{"source": "patent US9408856B2", "about": "“Topical steroidal formulations” (Temple University—Of The Commonwealth System of Higher …, priority 2008, dated 2016)", "key": {"[1]": {"system": "dexamethasone-induced thymic and splenic atrophy", "assay": "Dexamethasone-induced thymic and splenic atrophy in mice", "type": "in vivo, CD-1 mice", "conditions": "for Approximate Potency Compared to Fluasterone in Protecting Against DEX-induced Thymic and Splenic Involution: fluasterone = 1, mice; for protection against DEX-induced thymic and splenic atrophy: CD-1 mice", "method": "Administration of dehydroepiandrosterone (DHEA, 60 mg/kg, s.c.) for three days partially reverse thymic and splenic atrophy induced by a single injection of dexamethasone (1.6 mg/mouse). In this experiment, the efficacy of either 10 mg/kg or 20 mg/kg DHEA administered s.c. versus the effect of 10 mg/kg or 20 mg/kg fluasterone was investigated.\n5% Cremophor (polyethoxylated castor oil; Sigma Chemicals)-95% saline vehicle was prepared using 95 mL of sterile 0.9% NaCl (filtered through sterile 0.22 micron filter) and 5 mL of Cremophor. The Cremophor was dissolved by swirling for approximately 5 minutes.\nDexamethasone solutions were prepared by dissolving dexamethasone (Sigma Chemicals) in absolute ethanol. For example, 71.9 mg of dexamethasone was dissolved in 2.9 mL of absolute ethanol. In order to prevent precipitation, the solution was kept on a hotplate between injections.\nFor the 10 mg/kg suspension, 25.7 mg of DHEA was weighed out, transferred to a glass scintillation vial, and 10.3 mL of the Cremophor-saline vehicle was added. The DHEA suspension was homogenized using a Tissumizer at 80% power for 30 sec. The Tissumizer was rinsed with 70% ethanol prior to homogenization. After the 10 mg/kg DHEA suspension was homogenized the probe was rinsed 2× with 50 mL of absolute ethanol, then with 50 mL of 70% ethanol, and then dried with sterile gauze. For the 20 mg/kg DHEA suspension, 50.9 mg DHEA was suspended in 10.2 mL of Cremophor-saline vehicle.\n19.4 mg of fluasterone was weighed out and transferred to a glass scintillation vial. 7.8 mL of Cremophor-saline vehicle was added to the vial and the contents of the vial were homogenized with a Tissumizer as described previously. Prior to preparing the 20 mg/kg fluasterone, the probe was rinsed 2× with 50 mL of absolute ethanol and 1× with 50 mL of 70% ethanol. For the 20 mg/kg suspension, 47.0 mg was weighed out and transferred to a glass scintillation vial. 9.4 mL of Cremophor-saline vehicle was added to the vial and the contents of the vial were homogenized with a Tissumizer as described above.\nFemale CD-1 mice, 43-45 days old, were obtained from Charles River Laboratories. The mice were housed 5 per cage in plastic shoebox cages with ad libitum access to Purina chow 5015 and water in the Pharmacy CAF with 12 hr of alternating light and darkness.\nPrior to the experiment the mice were weighed, separated into 6 groups containing 5 mice each and treated as follows:\nMice were treated s.c. with 0.1 mL of 5% Cremophor-95% saline for three days. On the third day, the mice were also treated s.c. with 1.6 mg of dexamethasone dissolved in 0.06 mL of absolute. ethanol.\nMice were treated s.c. with 0.25 mg of DHEA suspended in 0.1 mL of 5% Cremophor-95% saline for three days. On the third day, the mice were also treated s.c. with 1.6 mg of dexamethasone dissolved in 0.06 mL of absolute ethanol.\nMice were treated s.c. with 0.5 mg of DHEA suspended in 0.1 mL of 5% Cremophor-95% saline for three days. On the third day, the mice were also treated s.c. with 1.6 mg of dexamethasone dissolved in 0.06 mL of absolute ethanol.\nMice were treated s.c. with 0.25 mg of fluasterone suspended in 0.1 mL of 5% Cremophor-95% saline for three days. On the third day, the mice were also treated s.c. with 1.6 mg of dexamethasone dissolved in 0.06 mL of absolute ethanol.\nMice were treated s.c. with 0.5 mg of fluasterone suspended in 0.1 mL of 5% Cremophor-95% saline for three days. On the third day, the mice were also treated s.c. with 1.6 mg of dexamethasone dissolved in 0.06 mL of absolute ethanol.\nAll s.c. injections were made in the nape. All mice were lightly anesthetized while the s.c. injections were done.\nTwenty-four hours after dexamethasone treatment, the mice were euthanized by an overdose of isoflurane. The spleen and thymus were removed, cleaned of any adventitia, rinsed, blotted on filter paper, and weighed. […]"}, "[2]": {"target": "glucose 6-phosphate dehydrogenase (G6PDH) (Homo sapiens, UniProt P11413)", "sequence (P11413 whole entry)": "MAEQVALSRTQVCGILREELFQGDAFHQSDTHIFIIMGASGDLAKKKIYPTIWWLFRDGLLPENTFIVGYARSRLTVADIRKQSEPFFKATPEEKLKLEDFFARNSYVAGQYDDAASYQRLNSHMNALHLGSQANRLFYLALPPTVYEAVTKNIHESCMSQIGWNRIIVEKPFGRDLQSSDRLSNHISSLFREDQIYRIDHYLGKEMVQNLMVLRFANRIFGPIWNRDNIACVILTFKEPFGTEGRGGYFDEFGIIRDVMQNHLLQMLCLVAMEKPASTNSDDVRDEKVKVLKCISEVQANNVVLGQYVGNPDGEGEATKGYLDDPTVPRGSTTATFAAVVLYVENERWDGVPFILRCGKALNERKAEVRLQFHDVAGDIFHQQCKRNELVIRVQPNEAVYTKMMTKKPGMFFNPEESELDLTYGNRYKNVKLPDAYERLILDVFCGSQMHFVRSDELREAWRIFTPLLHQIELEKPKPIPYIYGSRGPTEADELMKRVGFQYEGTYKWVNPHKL", "conditions": "Schwartz et al., Cancer Res. 48:4817-4822, 1988; cited from earlier work"}, "[3]": {"system": "dexamethasone-induced thymic and splenic atrophy", "conditions": "C3H/HeN mice; 60 mg/kg s.c. 3 days; single DEX dose 1.6 mg; Blauer et al. 1991; cited from earlier work"}, "[4]": {"assay": "Fate of orally administered 14C-fluasterone"}, "[5]": {"conditions": "Table 16, steroid 20 mg/kg + dexamethasone"}, "[6]": {"conditions": "Table 16, steroid 40 mg/kg + dexamethasone"}, "[7]": {"conditions": "Table 12, 10 mg/kg s.c. 3 days + dexamethasone 1.6 mg s.c. on day 3, 24 h after dexamethasone"}, "[8]": {"conditions": "Table 12, 20 mg/kg s.c. 3 days + dexamethasone 1.6 mg s.c. on day 3, 24 h after dexamethasone"}, "[9]": {"conditions": "Table 14, micronized steroid 20 mg/kg + dexamethasone"}, "[10]": {"conditions": "Table 14, micronized steroid 60 mg/kg + dexamethasone"}, "[11]": {"conditions": "Table 16, steroid 60 mg/kg + dexamethasone"}}, "note": "Entries after “also recorded” stand apart in the source; their conditions may differ."}
{"molecule": "C[C@]12CCCC[C@@H]1CC[C@@H]1[C@@H]2CC[C@]2(C)C(=O)[C@H](F)C[C@@H]12", "note": "[compound 8356, 16α-fluoro-5α-androstan-17-one]", "values": [{"measurement": "Body Weight", "setting": "[1]; [5]", "result": "25.2 ± 2.9"}, {"measurement": "Spleen wt", "setting": "[1]; [5]", "result": "54.0 ± 4.5"}, {"measurement": "Spleen wt/BW", "setting": "[1]; [5]", "result": "2.0 ± 0.3"}, {"measurement": "Thymus wt", "setting": "[1]; [5]", "result": "40.8 ± 5.8"}, {"measurement": "Thymus wt/BW", "setting": "[1]; [5]", "result": "1.6 ± 0.1"}, {"measurement": "Body Weight", "setting": "[1]; [6]", "result": "25.2 ± 1.4"}, {"measurement": "Spleen wt", "setting": "[1]; [6]", "result": "51.2 ± 3.0"}, {"measurement": "Spleen wt/BW", "setting": "[1]; [6]", "result": "2.0 ± 0.2"}, {"measurement": "Thymus wt", "setting": "[1]; [6]", "result": "54.4 ± 4.5"}, {"measurement": "Thymus wt/BW", "setting": "[1]; [6]", "result": "2.2 ± 0.2"}, {"measurement": "Approximate Potency Compared to Fluasterone in Protecting Against DEX-induced Thymic and Splenic Involution", "setting": "[1]", "result": "about ⅛"}, {"measurement": "G6PDH inhibition compared with fluasterone", "setting": "[2]", "result": "more potent G6PDH inhibitor than fluasterone"}]}
{"molecule": "C[C@]12CC[C@H](O)CC1=CC[C@@H]1[C@@H]2CC[C@]2(C)C(=O)CC[C@@H]12", "note": "[DHEA, dehydroepiandrosterone, reference compound]", "values": [{"measurement": "protection against DEX-induced thymic and splenic atrophy", "setting": "[1]; 10 mg/kg", "result": "inactive"}, {"measurement": "protection against DEX-induced thymic and splenic atrophy", "setting": "[1]; 20 mg/kg", "result": "no apparent protection; also recorded: inactive"}, {"measurement": "protection against DEX-induced thymic and splenic atrophy", "setting": "[1]; 60 mg/kg", "result": "significantly protected"}, {"measurement": "Body Weight", "setting": "[1]; [7]", "result": "23.7 ± 1.0"}, {"measurement": "Spleen wt", "setting": "[1]; [7]", "result": "46.4 ± 3.7"}, {"measurement": "Spleen wt/BW", "setting": "[1]; [7]", "result": "2.0 ± 0.2"}, {"measurement": "Thymus wt", "setting": "[1]; [7]", "result": "31.7 ± 2.6"}, {"measurement": "Thymus wt/BW", "setting": "[1]; [7]", "result": "1.3 ± 0.2"}, {"measurement": "Body Weight", "setting": "[1]; [8]", "result": "24.5 ± 2.1"}, {"measurement": "Spleen wt", "setting": "[1]; [8]", "result": "51.4 ± 2.2"}, {"measurement": "Spleen wt/BW", "setting": "[1]; [8]", "result": "2.1 ± 0.2"}, {"measurement": "Thymus wt", "setting": "[1]; [8]", "result": "36.6 ± 5.2"}, {"measurement": "Thymus wt/BW", "setting": "[1]; [8]", "result": "1.5 ± 0.2"}, {"measurement": "Body Weight", "setting": "[1]; [9]", "result": "27.4 ± 4.0"}, {"measurement": "Spleen wt", "setting": "[1]; [9]", "result": "56.8 ± 8.1"}, {"measurement": "Spleen wt/BW", "setting": "[1]; [9]", "result": "2.1 ± 0.1"}, {"measurement": "Thymus wt", "setting": "[1]; [9]", "result": "39.3 ± 4.1"}, {"measurement": "Thymus wt/BW", "setting": "[1]; [9]", "result": "1.4 ± 0.1"}, {"measurement": "Body Weight", "setting": "[1]; [10]", "result": "27.0 ± 3.1"}, {"measurement": "Spleen wt", "setting": "[1]; [10]", "result": "79.9 ± 16.0"}, {"measurement": "Spleen wt/BW", "setting": "[1]; [10]", "result": "3.0 ± 0.4"}, {"measurement": "Thymus wt", "setting": "[1]; [10]", "result": "63.2 ± 7.8"}, {"measurement": "Thymus wt/BW", "setting": "[1]; [10]", "result": "2.3 ± 0.2"}, {"measurement": "Approximate Potency Compared to Fluasterone in Protecting Against DEX-induced Thymic and Splenic Involution", "setting": "[1]", "result": "about ⅙"}, {"measurement": "effect on DEX-induced thymic and splenic atrophy", "setting": "[3]", "result": "significantly reduces"}]}
{"molecule": "C[C@]12CCCCC1=CC[C@@H]1[C@@H]2CC[C@]2(C)C(=O)[C@H](F)C[C@@H]12", "note": "[^14C-Fluasterone]", "values": [{"measurement": "metabolism after oral administration", "setting": "[4]", "result": "extensive first-pass hepatic and/or gastrointestinal metabolism"}]}
{"molecule": "C[C@]12CC[C@H]3[C@@H](CC=C4CCCC[C@@]43C)[C@@H]1C[C@@H](F)[C@@H]2O", "note": "[16α-fluoro-5-androsten-17β-ol]", "values": [{"measurement": "Body Weight", "setting": "[1]; [5]", "result": "25.1 ± 1.0"}, {"measurement": "Spleen wt", "setting": "[1]; [5]", "result": "52.3 ± 10.8"}, {"measurement": "Spleen wt/BW", "setting": "[1]; [5]", "result": "2.1 ± 0.4"}, {"measurement": "Thymus wt", "setting": "[1]; [5]", "result": "42.3 ± 4.6"}, {"measurement": "Thymus wt/BW", "setting": "[1]; [5]", "result": "1.7 ± 0.2"}, {"measurement": "Body Weight", "setting": "[1]; [11]", "result": "25.7 ± 1.5"}, {"measurement": "Spleen wt", "setting": "[1]; [11]", "result": "45.9 ± 5.1"}, {"measurement": "Spleen wt/BW", "setting": "[1]; [11]", "result": "1.8 ± 0.2"}, {"measurement": "Thymus wt", "setting": "[1]; [11]", "result": "45.1 ± 5.1"}, {"measurement": "Thymus wt/BW", "setting": "[1]; [11]", "result": "1.8 ± 0.2"}, {"measurement": "Approximate Potency Compared to Fluasterone in Protecting Against DEX-induced Thymic and Splenic Involution", "setting": "[1]", "result": "< 1/12"}]}
